Assays:
[1] = system: Bemisia argentifolii; experiment: Insecticidal test on Bemisia argentifolii (kidney bean leaf spray); type: in vivo; conditions: 120 h, 500 ppm solution sprayed (2.5 mg/cm^2), adults on kidney bean leaves, 5 days after, 25° C.
Description: In styrol cups having an inner diameter of 7 cm, wet filter paper was laid, and kidney bean leaves cut to 3 cm were laid on the paper. […] The leaves were dried in air, and adults of Bemisia argentifolii were released in the cups, and the cups were covered with lids and placed in an incubator at 25° C. 5 Days after, dead insects were counted, and the mortality was calculated by using the same equation as in Test Example 1. The test was carried out in duplicate.

[2] = system: Rhipicephalus sanguineus; experiment: Test on the effect on Rhipicephalus sanguineus (thin film in glass container); type: in vivo; conditions: 96 h, application dose 10 μg/cm^2, protonymphs, 4 days after release, 25° C.
Description: 350 μl of the solutions were applied to the bottoms and the side walls of glass containers with an inner wall surface area of 35 cm^2, and acetone was volatilized to prepare thin films of the compounds on the inner walls of the glass containers. Since the inner wall surface area of each glass container was 35 cm^2, the application dose was 10 μg/cm^2.
To each glass container, five protonymphs (male and female) of Rhipiceohalus sanguineus were released, and the containers were covered with lids and placed in an incubator at 25° C. 4 Days after the release of the ticks, dead ticks were counted, and the mortality was calculated by using the same equation as in Test Example 1.

[3] = system: Plutella xylostella; experiment: Insecticidal test on Plutella xylostella (cabbage leaves soaked); type: in vivo; conditions: 144 h, 500 ppm solution, 3rd-instar larvae, 6 days after, 25° C.
[4] = system: Nilaparvata lugens; experiment: Insecticidal test on Nilaparvata lugens (rice sheaths soaked); type: in vivo; conditions: 144 h, 500 ppm solution, 3rd-instar larvae, 6 days after, 25° C.
Description: Rice sheaths were soaked in the solutions for about 10 seconds. After the soaking, the rice sheaths were dried in air and put in test tubes. In each tube, five 3rd-instar larvae of Nilaparvata lugens were released, and the tubes were capped with sponge and placed in an incubator at 25° C. 6 Days after, dead insects in the test tubes were counted, and the mortality (%) (the number of dead insects÷the number of released insects×100) was calculated. The test was carried out in duplicate.

[5] = system: Spodoptera litura; experiment: Insecticidal test on Spodoptera litura (cabbage leaves soaked); type: in vivo; conditions: 144 h, 500 ppm solution, 3rd-instar larvae, 6 days after, 25° C.
[6] = system: Frankliniella occidentalis; experiment: Insecticidal activity on Frankliniella occidentalis (kidney bean leaf spray); type: in vivo; conditions: 48 h, 500 ppm solution sprayed (2.5 mg/cm^2), larvae on kidney bean leaves, 2 days after
Description: In styrol cups having an inner diameter of 7 cm, wet filter paper was laid, kidney bean leaves cut into a 3 cm square were laid on the paper, and each leaf was inoculated with 20 larvae of Frankliniella occidentalis. […] 2.5 ml of the solutions were sprayed from a rotary spray tower into the styrol cups (2.5 mg/cm^2).
2 Days after, dead insects were counted, and insect damage on kidney bean leaves was examined. The mortality was calculated by using the same equation as in Test Example 1.
The insect damage degree was evaluated as follows. 1: 0 to 20% insect damage, 2: 20 to 50% insect damage, 3: 50 to 70% insect damage, and 4: 70% or higher insect damge. The test was carried out in duplicate.

[7] = system: Myzus persicae; experiment: Insecticidal test on Myzus persicae (cabbage leaf spray); type: in vivo; conditions: 144 h, 500 ppm solution sprayed (2.5 mg/cm^2), apterous adults on cabbage leaves, 6 days after, 25° C.
Description: Wet absorbent cotton was laid on glass dishes having an inner diameter of 3 cm, and covered with leaves of cabbage cut into circles of the same diameter, and 4 apterous adults of Myzus persicae were released. […] The solutions were sprayed from a rotary spray tower (2.5 mg/cm^2), and the dishes were covered with lids and placed in an incubator at 25° C. 6 Days after, dead insects were counted, and the mortality was calculated by using the same equation as in Test Example 1. The test was carried out in duplicate.

[8] = system: Ctenocephalides felis; experiment: Test on the effect on Ctenocephalides felis (thin film in glass container); type: in vivo; conditions: 96 h, application dose 10 μg/cm^2, adults, 4 days after release, 25° C.
[9] = system: Plutella xylostella; experiment: Soil irrigation test on Plutella xylostella; type: in vivo; conditions: 144 h, 500 ppm solution, 10 ml soil irrigation of cabbage seedlings, leaves picked 5 days after, 3rd-instar larvae, 6 days after
Description: The soil around the bases of cabbage seedlings (at the 2.5-leaf stage) planted in plastic cups was irrigated with 10 ml of the solutions. After the irrigation, the cabbage seedlings were placed in a greenhouse. 5 Days after the irrigation, leaves of cabbage were picked and placed in dishes. In each dish, five 3rd-instar larvae of Plutella xylostella were released, and the dishes were covered with lids and placed in an incubator at 25° C. 6 Days after, dead insects in the dishes were counted, and the mortality was calculated by using the same equation as in Test Example 1. The test was carried out in duplicate.

[10] = system: Nilaparvata lugens; experiment: Systemic insecticidal test on Nilaparvata lugens (rice seedling root dip); type: in vivo; conditions: 20 ppm solution, rice seedling roots dipped 7 days, 3rd-instar larvae, 6 days after release, 25° C.
Description: 7 Days after, the rice seedlings were picked and put in test tubes, and in each tube, five 3rd-instar larvae of Nilaparvata lugens were released, and the tubes were capped with sponge and placed in an incubator at 25° C. 6 Days after the release of the insects, dead insects were counted, and the mortality (%) (the number of dead insects÷the number of released insects×100) was calculated. The test was carried out in duplicate.

SMILES	melting point [°C]	mortality at 500 ppm [1] [%]	mortality at 10 µg/cm2 [2] [%]	mortality at 500 ppm [3] [%]	mortality at 500 ppm [4] [%]	mortality at 500 ppm [5] [%]	mortality at 500 ppm [6] [%]	mortality at 500 ppm [7] [%]	mortality at 10 µg/cm2 [8] [%]	pest or weed control at 500 ppm [9] [%]	mortality at 20 ppm [10] [%]
CCS(=O)(=O)c1c(-c2nc3cc(C(F)(F)F)cnc3n2C)sc2ccc(C(F)(F)F)cc12 [3-1-002a, 2-[3-(ethylsulfonyl)-5-(trifluoromethyl)benzo[b]thiophen-2-yl]-3-methyl-6-(trifluoromethyl)-3H-imidazo[4,5-b]pyridine]		≥ 90	≥ 50	≥ 90	≥ 90	≥ 90	≥ 50	≥ 90	≥ 50		
CCSc1c(-c2nc3cc(C(F)(F)F)cnc3s2)nc2cc(C(F)(F)F)ccn12 [1-13-001b, 2-[3-(ethylthio)-7-(trifluoromethyl)imidazo[1,2-a]pyridin-2-yl]-6-(trifluoromethyl)thiazolo[5,4-b]pyridine]	150 to 160										
CCCCC(CC)COC(=O)CCSc1cnc2c(c1)nc(-c1nc3cc(C(F)(F)F)ccn3c1SCC)n2C (stereo not shown) [1-1-028b, 2-ethylhexyl 3-((2-(3-(ethylthio)-7-(trifluoromethyl)imidazo[1,2-a]pyridin-2-yl)-3-methyl-3H-imidazo[4,5-b]pyridin-6-yl)thio)propanoate]	94 to 96										
CCS(=O)(=O)c1c(-c2cn3cnc(C(F)(F)F)cc3n2)nc2cc(C(F)(F)F)ccn12 [1-3-001a, 2-[3-(ethylsulfonyl)-7-(trifluoromethyl)imidazo[1,2-a]pyridin-2-yl]-7-(trifluoromethyl)imidazo[1,2-c]pyrimidine]		≥ 90		≥ 90	≥ 90	≥ 90		≥ 90	≥ 50	≥ 90	≥ 90
CCS(=O)(=O)c1c(-c2nc3cc(C(F)(F)F)c[n+]([O-])c3n2C)nc2cc(C(F)(F)F)ccn12 [1-14-001a, 2-[3-(ethylsulfonyl)-7-(trifluoromethyl)imidazo[1,2-a]pyridin-2-yl]-3-methyl-6-(trifluoromethyl)-3H-imidazo[4,5-b]pyridine 4-oxide]		≥ 90		≥ 90	≥ 90	≥ 90		≥ 90	≥ 50	≥ 90	≥ 90

The next lines start with results.

melting point [°C]	SMILES	mortality at 500 ppm [1] [%]	mortality at 10 µg/cm2 [2] [%]	mortality at 500 ppm [3] [%]	mortality at 500 ppm [4] [%]	mortality at 500 ppm [5] [%]	mortality at 500 ppm [6] [%]	mortality at 500 ppm [7] [%]	mortality at 10 µg/cm2 [8] [%]	pest or weed control at 500 ppm [9] [%]	mortality at 20 ppm [10] [%]
220 to 222	CCSc1c(-c2nc3cc(C(F)(F)F)cnc3n2C)nc2cnc(C(F)(F)F)cn12 [1-1-029b, 2-[3-(ethylthio)-6-(trifluoromethyl)imidazo[1,2-a]pyrazin-2-yl]-3-methyl-6-(trifluoromethyl)-3H-imidazo[4,5-b]pyridine]										
164 to 166	CCSc1c(-c2nc3nc(C(F)(F)F)ccc3n2C)nc2cc(C(F)(F)F)ccn12 [1-7-001b, 2-[3-(ethylthio)-7-(trifluoromethyl)imidazo[1,2-a]pyridin-2-yl]-1-methyl-5-(trifluoromethyl)-1H-imidazo[4,5-b]pyridine]										
